In data set [1] the test system is Mus musculus. Kind of data set: Hepatoprotective activity against lipopolysaccharide/D-galactosamine-induced acute hepatic injury in mouse assessed as inhibition of LPS/GalN-induced decrease in CAT level in liver at 50 mg/kg. Format: functional, organism-based.
In data set [2] the test system is Mus musculus. Kind of data set: Hepatoprotective activity against lipopolysaccharide/D-galactosamine-induced acute hepatic injury in mouse assessed as decrease in TLR4 protein level in liver at 12.5 to 50 mg/kg by Western blot analysis. Format: functional, organism-based.
Data set [3] is described as follows: Solubility of the compound in water assessed as volume of solvent required to dissolve 1 g of compound. The format is physicochemical. The note with it: buffer.
In data set [4] the test system is Mus musculus. Nature of the data set: Hepatoprotective activity against lipopolysaccharide/D-galactosamine-induced acute hepatic injury in mouse assessed as increase in Nrf2 mRNA level in liver at 12.5 to 50 mg/kg by RT-PCR analysis. The format is functional, organism-based.
The subject of data set [5] is Mus musculus. Nature of the data set: Hepatoprotective activity against lipopolysaccharide/D-galactosamine-induced acute hepatic injury in mouse assessed as inhibition of TNFalpha mRNA level in liver at 12.5 to 50 mg/kg by RT-PCR analysis. The format is functional, organism-based.
In data set [6] the test system is Mus musculus. Nature of the data set: Hepatoprotective activity against lipopolysaccharide/D-galactosamine-induced acute hepatic injury in mouse assessed as increase in HO1 protein level in liver at 50 mg/kg by Western blot analysis. Format: functional, organism-based.
The subject of data set [7] is Mus musculus. Kind of data set: Hepatoprotective activity against lipopolysaccharide/D-galactosamine-induced acute hepatic injury in mouse assessed as increase in survival rate at 50 mg/kg up to 24 hrs. The format is functional, organism-based.
Data set [8] relates to Mus musculus. Kind of data set: Hepatoprotective activity against lipopolysaccharide/D-galactosamine-induced acute hepatic injury in mouse assessed as inhibition of Il-1beta mRNA level in liver at 12.5 to 50 mg/kg by RT-PCR analysis. The format is functional, organism-based.
Data set [9] relates to Mus musculus. Kind of data set: Hepatoprotective activity against lipopolysaccharide/D-galactosamine-induced acute hepatic injury in mouse assessed as inhibition of LPS/GalN-induced increase in TNFalpha level in serum at 12.5 to 50 mg/kg. Format: functional, organism-based.
Data set [10] deals with Mus musculus. Nature of the data set: Hepatoprotective activity against lipopolysaccharide/D-galactosamine-induced acute hepatic injury in mouse assessed as inhibition of LPS/GalN-induced increase in TNFalpha level in liver at 12.5 to 50 mg/kg. The format is functional, organism-based.
Data set [11] relates to Mus musculus. Nature of the data set: Hepatoprotective activity against lipopolysaccharide/D-galactosamine-induced acute hepatic injury in mouse assessed as inhibition of NFkB mRNA level in liver at 12.5 to 50 mg/kg by RT-PCR analysis. The format is functional, organism-based.
Data set [12] deals with Mus musculus. Nature of the data set: Hepatoprotective activity against lipopolysaccharide/D-galactosamine-induced acute hepatic injury in mouse assessed as restoration of hepatic lobular structure at 50 mg/kg up to 24 hrs by microscopic method. The format is functional, organism-based.
Data set [13] concerns Mus musculus. Kind of data set: Hepatoprotective activity against lipopolysaccharide/D-galactosamine-induced acute hepatic injury in mouse assessed as reduction in serum ALT level at 50 mg/kg. The format is functional, organism-based.
For data set [14], the system named is Mus musculus. Nature of the data set: Hepatoprotective activity against lipopolysaccharide/D-galactosamine-induced acute hepatic injury in mouse assessed as inhibition of LPS/GalN-induced increase in MDA level in liver at 50 mg/kg. The format is functional, organism-based.
The test system of data set [15] is L02. Kind of data set: Cytotoxicity against human L02 cells up to 10 uM by MTT assay. Format: cell-based. In general terms: Tetrazolium assays rely on reduction of a dye to a coloured formazan, in cell work by metabolically active cells.
The test system of data set [16] is Mus musculus. Nature of the data set: Hepatoprotective activity against lipopolysaccharide/D-galactosamine-induced acute hepatic injury in mouse assessed as inhibition of liver cell necrosis at 50 mg/kg up to 24 hrs by microscopic method. Format: functional, organism-based.
Data set [17] concerns Mus musculus. Kind of data set: Hepatoprotective activity against lipopolysaccharide/D-galactosamine-induced acute hepatic injury in mouse assessed as increase in IkB protein level in liver at 50 mg/kg by Western blot analysis. The format is functional, organism-based. (Immunoblotting shows a protein as a band on a membrane.)
Data set [18] has as its system Mus musculus. Nature of the data set: Hepatoprotective activity against lipopolysaccharide/D-galactosamine-induced acute hepatic injury in mouse assessed as inhibition of LPS/GalN-induced increase in IL-1beta level in serum at 12.5 to 50 mg/kg. The format is functional, organism-based.
The subject of data set [19] is Mus musculus. Kind of data set: Hepatoprotective activity against lipopolysaccharide/D-galactosamine-induced acute hepatic injury in mouse assessed as inhibition of LPS/GalN-induced decrease in SOD level in liver at 50 mg/kg. The format is functional, organism-based.
Data set [20] has as its system Mus musculus. Kind of data set: Hepatoprotective activity against lipopolysaccharide/D-galactosamine-induced acute hepatic injury in mouse assessed as decrease in NF-kB protein level in liver at 12.5 to 50 mg/kg by Western blot analysis. Format: functional, organism-based.
The test system of data set [21] is Mus musculus. Nature of the data set: Hepatoprotective activity against lipopolysaccharide/D-galactosamine-induced acute hepatic injury in mouse assessed as reduction in serum AST level at 50 mg/kg. The format is functional, organism-based.
In data set [22] the test system is Mus musculus. Nature of the data set: Hepatoprotective activity against lipopolysaccharide/D-galactosamine-induced acute hepatic injury in mouse assessed as increase in Nrf2 protein level in liver at 50 mg/kg by Western blot analysis. Format: functional, organism-based.
The subject of data set [23] is Mus musculus. Nature of the data set: Hepatoprotective activity against lipopolysaccharide/D-galactosamine-induced acute hepatic injury in mouse assessed as inhibition of LPS/GalN-induced increase in IL-6 level in liver at 12.5 to 50 mg/kg. The format is functional, organism-based.
The test system of data set [24] is Mus musculus. Nature of the data set: Hepatoprotective activity against lipopolysaccharide/D-galactosamine-induced acute hepatic injury in mouse assessed as inhibition of LPS/GalN-induced decrease in GSH level in liver at 50 mg/kg. The format is functional, organism-based.
Data set [25] concerns Mus musculus. Nature of the data set: Hepatoprotective activity against lipopolysaccharide/D-galactosamine-induced acute hepatic injury in mouse assessed as inhibition of LPS/GalN-induced increase in IL-1beta level in liver at 12.5 to 50 mg/kg. Format: functional, organism-based.
The test system of data set [26] is Mus musculus. Kind of data set: Hepatoprotective activity against lipopolysaccharide/D-galactosamine-induced acute hepatic injury in mouse assessed as inhibition of LPS/GalN-induced increase in IL-6 level in serum at 12.5 to 50 mg/kg. The format is functional, organism-based.

Active and inactive are the calls of the source. The calls are words filed in the database; no cut-off is given here. Where only a bound is given, the exact number is not on record here.

With `CC[C@H](CC[C@@H](C)[C@H]1CC[C@H]2[C@@H]3CC=C4C[C@@H](OC(=O)c5ccc6ccccc6c5)CC[C@]4(C)[C@H]3CC[C@]12C)C(C)C`, the inhibition result in data set [1], in [5], in [8], in data set [9], in data set [10] and in data set [11] was “Active” in each case. For the same compound, the inhibition entry in data set [14], in data set [16], in data set [18], in data set [19], in data set [23] and in data set [24] was “Active” each time. The inhibition result in [25] and in data set [26] was “Active” in each case. Moreover, the result in [2], in data set [4], in data set [6], in data set [7], in [12] and in data set [13] was Active. The outcome in data set [17], in data set [20], in [21] and in data set [22] was Active. In addition, in data set [3], the solubility was in the range of 1000 to 10000 mL. Moreover, the Activity entry in data set [15] is “Non-Toxic”.

As to `CC[C@H](CC[C@@H](C)[C@H]1CC[C@H]2[C@@H]3CC=C4C[C@@H](O)CC[C@]4(C)[C@H]3CC[C@]12C)C(C)C` [BETA-SITOSTEROL], the solubility entry in data set [3] is “<= 10000 ml”. Further, the result in data set [7] was Active.

Take `CC[C@H](CC[C@@H](C)[C@H]1CC[C@H]2[C@@H]3CC=C4C[C@@H](OC(=O)c5ccccc5O)CC[C@]4(C)[C@H]3CC[C@]12C)C(C)C`: the solubility in data set [3] was 1000 to 10000 mL. Further, the result in data set [7] was Active. Also, in data set [15], the Activity entry was “Non-Toxic”.

For `C/C=C/C=C/C(=O)O[C@H]1CC[C@@]2(C)C(=CC[C@H]3[C@@H]4CC[C@H]([C@H](C)CC[C@@H](CC)C(C)C)[C@@]4(C)CC[C@@H]32)C1`, the solubility in data set [3] fell in the range of 1000 to 10000 mL. The result in [7] was Active. Also, in data set [15], the Activity result was “Non-Toxic”.

Consider `CC[C@H](CC[C@@H](C)[C@H]1CC[C@H]2[C@@H]3CC=C4C[C@@H](OC(=O)c5ccco5)CC[C@]4(C)[C@H]3CC[C@]12C)C(C)C`, for which the solubility in [3] was in the range of 1000 to 10000 mL. In addition, the result in data set [7] was Active. In addition, the Activity result in [15] is “Non-Toxic”.

The values above are taken from ChEMBL document CHEMBL4219200, “Beta-sitosterol and its derivatives repress lipopolysaccharide/d-galactosamine-induced acute hepatic injury by inhibiting the oxidation and inflammation in mice” (Bioorg Med Chem Lett, 2018).
